Entries after “also recorded” stand apart in the source; their conditions may differ. Positions of bridges follow the written chain, without caps; N, C: chain ends. No end group written: not given here.
Experiments:
RG RSV [1] = assay: HR2-D peptide series, prophylactic model of infection in Vero cells, GFP by flow cytometry; format: cell-based, respiratory syncytial virus; settings: for GFP from positive control: prophylactic
Procedure: (§1) 25K Vero or A549 cells grown in 48-well plates and supplied with DMEM (no serum) were treated with a dose of peptides or micelle-peptides (5 μM peptide/well) for 30 min. previous to infection with RSV. Infection was carried out at a 0.1 MOI and allowed in the cell culture for 1 h. After removal of viral supernatant, the cells were treated with a second dose of peptides or peptide-loaded micelles containing 5 μM peptide/well in DMEM (5% FBS, 1% P/S). Infection was followed for a period of 48 h through microscopy and quantified through flow cytometry.
Infection experiments with the HR2-D series were carried out in Vero cells following a prophylactic model of infection using RG RSV (MOI=0.1) strain. At 48 h after infection, the cells were analyzed for GFP (positive RSV infection) by flow cytometry. […] Compared to HR2-D0, HR2-D1 is about 30% lower. For the activity of the inhibitor peptide HR2-D (˜20% GFP from positive control), as shown by the loss of activity by 1.5 fold for HR2-D2 vs. 2.5 fold for peptide HR2-D1. Moreover, the presence of the one free cysteine which is not forming a disulfide bond might result in destabilizing the whole structure. HR2-D1 and HR2-D2 have a free cysteine residue at position 9 and 32, respectively while HR2-S, HR2-D3 and HR2-D4 contain only one pair of cysteines.

RG RSV [2] = assay: Prophylactic model of RSV infection in HEp2 cells, flow cytometry of GFP, RG RSV; format: cell-based, respiratory syncytial virus; settings: two doses 5 μM peptide, 0.2 MOI, vs untreated positive control
Procedure: (§2) The effect of inhibitory peptides (HR2-A, HR2-B, HR2-C, HR2-D, HR2-E, HR2-S, HR2-D0, HR2-D1, HR2-D2, HR2-D3, HR2-D4) on RG RSV infection given by prophylactic method was visualized by inverted fluorescence microscopy (Olympus IX371) and quantitated by flow cytometry. For plaque assays, 50K HEp2 cells/well were seeded in 24-well plates and infected with RG RSV (0.1-1 MOI) in the presence of peptides for 1 h. The viral supernatant was removed and a second dose of peptides in methylcellulose/5% FBS was overlaid onto the cells. Plaques were visualized and quantified (3-5 days pi). Cellular uptake was characterized using confocal microscopy and flow cytometry. For confocal imaging, 50K cells (Vero, A549) were placed on a […] and grown overnight before treatment with MPs (5 μM peptide conc./dish) and incubated for 1 h at 37° C. […] Uptake was quantified by flow cytometry (BD FacsAria analyzer/sorter). […] Final cell pellet was suspended in 400 μl of 1×PBS and analyzed for green and/or red content.
(§3) The anti-RSV activity of peptides HR2-S, HR2-E, HR2-A, HR2-B, HR2-C, and HR2-D was tested in vitro following a prophylactic model of RSV infection in HEp2 cells described in the experimental section above. RG and RA2 RSV strains were used to quantify infection by flow and RA2 and A2 strains were used to quantitate the viral titers by immunochemistry. […]

A2 RSV = assay: RSV titers by plaque assay in HEp-2 cells in presence of peptide, A2 strain; format: cell-based, respiratory syncytial virus; settings: for inhibition of A2 infection by viral titers: 24-96 h after infection
Procedure: (§4) Growth and titration of the respiratory syncytial virus (RSV) strains A2, RG RSV (green-fluorescent tag), and rA2 were performed as previously described in the literature.^17,18 RSV was propagated in HEp-2 cells containing 0.1 PFU/cell in T-175 flasks supplied with 7 ml of 2% FBS, OptiMEM (virus yield 10^6-10^7 pfu/ml). Infection was allowed for 2 h. (at 37° C., 5% CO2) and then replaced with fresh media. The infection was allowed to progress until CPE (80-90%), typically happening after 3 days of incubation. Viral suspension was collected and combined with scrapped cells in to a vial and centrifuged at 3200 rpm for 10 min at 4° C. The culture supernatant was collected and mixed with 0.1 volumes of sterile magnesium sulfate (1M). Last, viral supernatant was stored in cryovials and stored in liquid nitrogen tank.^18,19 Viral titers were measured using carboxymethylcellulose plaque assay on HEp-2 cells grown to 80-90% confluency at 5% FBS/DMEM in a 24-well plate (70K cells per well).^17,18,19 Virus particles were visible and quantitated after immunochemistry treatment of the cells with primary anti-RSV F mouse monoclonal [RSV3216 (B016)] (1:1000 dilution) and secondary antibody against primary with HRP conjugate.
The effect of inhibitory peptides (HR2-A, HR2-B, HR2-C, HR2-D, HR2-E, HR2-S, HR2-D0, HR2-D1, HR2-D2, HR2-D3, HR2-D4) on RG RSV infection given by prophylactic method was visualized by inverted fluorescence microscopy (Olympus IX371) and quantitated by flow cytometry. For plaque assays, 50K HEp2 cells/well were seeded in 24-well plates and infected with RG RSV (0.1-1 MOI) in the presence of peptides for 1 h. The viral supernatant was removed and a second dose of peptides in methylcellulose/5% FBS was overlaid onto the cells. Plaques were visualized and quantified (3-5 days pi). Cellular uptake was characterized using confocal microscopy and flow cytometry. For confocal imaging, 50K cells (Vero, A549) were placed on a […] and grown overnight before treatment with MPs (5 μM peptide conc./dish) and incubated for 1 h at 37° C. Cells were placed in a live-cell environmental chamber at 37° C. with 5% CO2 and imaged using spinning-disk confocal microscopy (Olympus IX81 confocal microscope). Uptake was quantified by flow cytometry (BD FacsAria analyzer/sorter). Samples for flow cytometry were prepared using 50K cells/well seeded in 24-well plates and grown in DMEM plus 10% FBS and incubated with peptides at a concentration of 5 μM peptide/well for 30 min at 37° C. […] Final cell pellet was suspended in 400 μl of 1×PBS and analyzed for green and/or red content.
Following the same methodology as for flow, two doses of peptides were used, and virus inoculation was 0.2 MOI. Titers were quantified 24 to 96 h after infection (pi).

RG RSV [3] = assay: Free peptide and Cy5-labeled MPs, prophylactic model in Vero cells at low and high MOI, flow cytometry; format: cell-based, respiratory syncytial virus
Procedure: as §1
The effect of inhibitory peptides (HR2-A, HR2-B, HR2-C, HR2-D, HR2-E, HR2-S, HR2-D0, HR2-D1, HR2-D2, HR2-D3, HR2-D4) on RG RSV infection given by prophylactic method was visualized by inverted fluorescence microscopy (Olympus IX371) and quantitated by flow cytometry. […] Plaques were visualized and quantified (3-5 days pi). […] Uptake was quantified by flow cytometry (BD FacsAria analyzer/sorter). […] Final cell pellet was suspended in 400 μl of 1×PBS and analyzed for green and/or red content.
The hydrodynamic diameter of micelles with surface-conjugated peptides (MPs) was measured and compared to MPs with peptides also in the core (FMPs) (FIG. 6A). […] Subsequently experiments involved using Cy5 labeled peptides conjugated to the micelles and quantifying its activity against RG RSV infection by flow cytometry. […]

RG RSV [4] = assay: Therapeutic antiviral activity of FMDs in A549 cells infected with RG RSV; format: cell-based, respiratory syncytial virus; settings: administered 24 h pi, RG RSV low MOI
Procedure: 25K A549 cells grown in 48-well plates and supplied with DMEM (no serum) were infected with RSV at a 0.1 MOI for 1 h. After washing the viral supernatant, cells were incubated in DMEM (5% FBS, 1% P/S) allowing progression of infection for different time periods (4 and 24 h), however, only 24 h is shown here. At these two time points, cells were treated with a dose of peptides or micelle-peptides containing 5 μM peptide/well. Infection was followed for a period of 48 h through microscopy and quantified through Image J statistical analysis software.
For testing the efficiency of FMDs, cytotoxicity was measured in A549 cells at different HR2-D peptide concentrations using FM2D and FM3D, respectively (FIG. 10A). EM2 and EM3 represent empty micelle control. A549 cells were infected according to therapeutic conditions, and FMD (6 μM FM2D, 5 μM FM3D) were administered 24 h pi. The images were visualized 48 h pi (FIG. 10B) and the inhibitory efficiency quantified using flow cytometry (FIGS. 10C and 10D). […] FM3D had good inhibitory activity by suppressing the expression of GFP by 65% as compared to the control.

[5] = Hydrodynamic diameter by dynamic light scattering; format: physicochemical; settings: DLS, in water
Procedure: The hydrodynamic radius of functionalized micelles (FMDs), micelle-peptide complexes (MPs), FMP, Cy5-amine-coated micelles and Cy5-HR2-D in water was measured using dynamic light scattering and zeta potential (DLS, Microtrac). Aliquots for DLS were prepared by diluting the stock samples 1:5, passing them through a 0.2 μm syringe-filter and sonicating for 10 min to disrupt aggregation.

rgRSV = assay: In vivo model of rgRSV infection and intranasal prophylactic treatment; design: species or system BALB/c mice; settings: intranasal 50 μL of 125 μM 1 h before rgRSV 1×10^6 pfu, 24 h post infection, vs empty micelle control
Procedure: Ten week old BALB/c mice (n=4 per group) were anesthetized and treated intranasally with the indicated HR2D peptide (125 μM in 1.2% DMSO) or packaged in filled micelles or with chitosan nanoparticles and empty micelles control. One hour post reatment, three groups of mice were inoculated with a single dose of rgRSV at 1×10^6 pfu/mouse. Mice were sacrificed at 24 hours post infection and the noses harvested, sectioned, stained with DAPI and imaged for GFP using an Olympus fluorescent microscope.
To determine if the in vitro anti-RSV activity of HR2D translated to an in vivo context, in vivo testing was performed on mice. HR2D peptide itself, HR2 peptide with filled micelles, empty micelles as control, and HR2D peptide chitosan nanocomplexes were each administered by nasal drop (50 μL of 125 μM solution in 1.2% DMSO) to ten week old BALB/c mice followed by intranasal inoculation with a single dose of rgRSV (1×10^6 pfu) one hour later. Mice were sacrificed 24 hours after infection, and the noses harvested, sectioned, stained with DAPI, and subjected to fluorescence imaging. […] Thus, we find that pretreatment of rgRSV-infected mice with intranasal HR2D peptide markedly decreases nasal infection.

RSV RA2 = assay: Prophylactic model of RSV infection in HEp2 cells, flow cytometry with FITC-labeled anti-RSV staining, RA2 RSV; format: cell-based, respiratory syncytial virus; settings: two doses 5 μM peptide, 0.2 MOI
Procedure: as §2, §3

RA2 RSV = assay: RSV titers by plaque assay in HEp-2 cells in presence of peptide, RA2 strain; format: cell-based, respiratory syncytial virus; settings: 24-96 h after infection
Procedure: as §4, with “The culture supernatant was collected and mixed with 0.1 volumes of sterile magnesium sulfate (1M).” left out, “(1:1000 dilution) and secondary antibody against primary with HRP conjugate.” left out
The effect of inhibitory peptides (HR2-A, HR2-B, HR2-C, HR2-D, HR2-E, HR2-S, HR2-D0, HR2-D1, HR2-D2, HR2-D3, HR2-D4) on RG RSV infection given by prophylactic method was visualized by inverted fluorescence microscopy (Olympus IX371) and quantitated by flow cytometry. […] Plaques were visualized and quantified (3-5 days pi). […]

[6] = RG RSV MOI=0.1, 48 h after infection

DASISQVNECINQSLAFICKSDELLHNT (disulfide 10-19 (inferred)) [HR2-D4, ID NO.: 12]
activity less compared to HR2-S (RG RSV [1]; RG RSV MOI=0.1, 48 h): 2 fold

DACISQVNECINQSLAFIRKSDELLCNT (not fully specified (bridges); cysteine pairing not given here) [HR2-D2, ID NO.: 10]
loss of activity relative to HR2-D (RG RSV [1]; RG RSV MOI=0.1, 48 h): 1.5 fold

DACISQVNEKINQSLAFICKSDELLCNT (not fully specified (bridges); cysteine pairing not given here) [HR2-D1, ID NO.: 9]
GFP lower compared to HR2-D0 (RG RSV [1]; RG RSV MOI=0.1, 48 h): about 30%
loss of activity relative to HR2-D (RG RSV [1]; RG RSV MOI=0.1, 48 h): 2.5 fold

DACISQVNECINQSLAFICKSDELLCNT (disulfide (positions not given here)) [HR2-D, ID NO.: 7, two disulfides]
inhibition of RG RSV infection (GFP expression) (RG RSV [2]): greatest inhibition of RG RSV infection
inhibition of A2 infection by viral titers (A2 RSV): greater inhibitory activity
decrease in A2 titers (A2 RSV; 96 h pi, 0.2 MOI): 50,000 fold
GFP from positive control (RG RSV [1]; [6]): ~20%
infection blocked compared to positive control (RG RSV [3]; low MOI (0.1), prophylactic, 24 h pi): 85%
neutralization (peptide release comparison with controls) (RG RSV [3]; virus concentration not stated at this place): 70%
control of infection under therapeutic conditions (RG RSV [4]): did not control the infection significantly
hydrodynamic diameter [5]: 2 nm
RSV infection (GFP-positive cells) in nose sections (rgRSV): significantly decreased virus infected cells in the nose
RSV infection (GFP-positive cells) in nose sections (rgRSV; listed as HR2D peptide): marked reduction in GFP-positive nasal tissue

DASISQVNEKINQSLAFIRKSDELLHNT (Chemically synthesized anti-RSV peptide) [HR2-D0, ID NO.: 8, control peptide with no cysteine]
inhibitory activity against RSV infection (RG RSV [1]; [6]): did not show any inhibitory activity; also recorded: lack of activity

DACISQVNEKINQSLAFIRKSDELLCNT (disulfide 3-26 (inferred)) [HR2-D3, ID NO.: 11]
activity less compared to HR2-S (RG RSV [1]; RG RSV MOI=0.1, 48 h): 3 fold

FDACISQVNECINQSLAFIRKSDELLHNVNAGKST (disulfide 4-11 (inferred)) [HR2-S, ID NO.: 2, one disulfide]
inhibition of RG RSV infection (GFP expression) (RG RSV [2]): less GFP expression
inhibition of RA2 RSV infection (RSV RA2): most effective inhibitor
inhibition of RA2 infection by viral titers (RA2 RSV): did inhibit RA2 infection
inhibition of A2 infection by viral titers (A2 RSV): did not block A2 infection effectively
reduction in A2 viral titers (A2 RSV; 24 h to 96 h pi, 0.2 MOI, 5 μM peptide): about 0.2 fold
GFP from positive control (RG RSV [1]; [6]): ~38%

— patent US9556236B1, “Compositions and methods for treating respiratory syncytial virus infection” (priority 2012, dated 2017)
